How the values were obtained:
LNCaP cells [1] = assay: Soft agar colony formation assay; format: cell-based, human; conditions: 10 μM, 14 day-incubation
Procedure: Soft Agar Assay. The soft agar assay was performed according to Smith et al. (Smith, D. M. et al. Mol Med, 2002, 8:382-392) with a few modifications. In brief, in a six-well plate, a bottom feeder layer (0.6% agar) was prepared with DMEM media containing 10% fetal bovine serum, 100 units/ml penicillin, and 100 μg/ml streptomycin. A top layer (0.3% agar) was prepared with DMEM and the same media as described above but containing 2×10^4 prostate cancer LNCaP cells and indicated analogs or DMSO as a control. Plates were incubated at 37° C. in 5% CO2 in a humidified incubator for two weeks. MTT (1 mg/ml) was added to each well and incubated overnight to allow complete formation of purple formazan crystals. The plates were then scanned and photographed, and the number of colonies was quantified by QUANTITY ONE v.4.0.3 software (Bio-Rad, Hercules, Calif.).
The […] effects of several GTP analogs were investigated with a soft agar assay that measures the transforming activity of human tumor cells. LNCaP cells were plated in soft agar (see Materials and Methods) along with 50 μM of GTP-1, -2, -3, (−)-EGCG (as a positive control; Smith, D. M. et al. Mol Med, 2002, 8:382-392, 2002), or the solvent (as a negative control), followed by a 14 day-incubation to allow for colony formation (FIGS. 12A and 12B).
In a second experiment, LNCaP cells were plated in soft agar along with 10 μM of each indicated GTP or solvent (H2O), followed by a 14 day-incubation to allow for colony formation (FIG. 21A). […] Colonies were quantified with an automated counter and presented as mean values from triplicate independent experiments. Error bars denote standard deviations.

[2] = target: T1, 20S eukaryotic proteasome (Oryctolagus cuniculus, UniProt G1T4Q9); assay: Inhibition of chymotrypsin-like activity of purified eukaryotic 20S proteasome (Suc-Leu-Leu-Val-Tyr-AMC); format: biochemical, rabbit; conditions: chymotrypsin-like activity, rabbit 20S proteasome
T1 construct: purchased BOSTON BIOCHEM (Cambridge, Mass.)
T1 sequence (G1T4Q9 1-263): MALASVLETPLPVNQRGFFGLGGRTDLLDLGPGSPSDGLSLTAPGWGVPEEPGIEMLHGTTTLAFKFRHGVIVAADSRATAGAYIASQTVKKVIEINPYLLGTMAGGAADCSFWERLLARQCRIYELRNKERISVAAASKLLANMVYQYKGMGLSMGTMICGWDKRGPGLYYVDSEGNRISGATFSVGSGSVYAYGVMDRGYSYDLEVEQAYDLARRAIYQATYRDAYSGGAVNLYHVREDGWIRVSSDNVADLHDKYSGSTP
Procedure: Materials. Highly purified tea polyphenols (−)-EGCG (>95%), (−)-GCG (>98%), (−)-ECG (>98%), (−)-CG (>98%), fetal calf serum, propidium iodide, 3-[4,5-dimethylthiazol-2-yl]-2,5-diphenyltetrazolium bromide (MTT), RNase A, and DMSO were purchased from Sigma (St. Louis, Mo.). (+)-EGCG, benzyl-protected-(+)-EGCG, (+)-GCG, (−)-EGCG-amide, and (+)-EGCG-amide were prepared by enantioselective synthesis (see below). Purified 20S eukaryotic proteasome from rabbit was purchased from BOSTON BIOCHEM (Cambridge, Mass.). Purified 20S prokaryotic proteasome (Methanosarcina thermophile, Recombinant, E. coli) was purchased from CALBIOCHEM (La Jolla, Calif.). Fluorogenic peptide substrates Suc-Leu-Leu-Val-Tyr-AMC (for the proteasomal chymotrypsin-like activity) was obtained from Calbiochem (La Jolla, Calif.). RPMI 1640 medium, Dulbecco's modified Eagle's medium, MEM non-essential amino acids solution, MEM-sodium pyruvate solution, penicillin, and streptomycin were from INVITROGEN (Carlsbad, Calif.). Monoclonal antibody to p27^Kip was purchased from PHARMINGEN (San Diego, Calif.); polyclonal antibodies to IκB-α, Bax and actin, and monoclonal antibody to ubiquitin were from SANTA CRUZ Biotechnology Inc. (Santa Cruz, Calif.).
(§1) Inhibition of purified 20S proteasome activity by natural or synthetic GTPs. Purified prokaryotic (0.5 μg) or eukaryotic (0.02 μg) 20S proteasome was incubated with 20 μM fluorogenic peptide substrate, Suc-Leu-Leu-Val-Tyr-AMC for 30 min at 37° C. in […] of assay buffer (50 mM Tris-HCl, pH 7.5), with or without a natural or synthetic tea polyphenol. After incubation, production of hydrolyzed 7-amido-4-methyl-coumarin (AMC) groups was measured using a multi-well plate VERSAFLUOR Fluorometer with an excitation filter of 380 nm and an emission filter of 460 nm (BIO-RAD), and a multi-well plate reader Wallac 1420 VICTORTM^2 with an excitation filter of 355 nm and an emission filter of 460 nm (EG&G WALLAC).
Purified prokaryotic (0.5 μg) or eukaryotic (0.02 μg) 20S proteasome was incubated with 20 μM fluorogenic peptide substrate, Suc-Leu-Leu-Val-Tyr-AMC for 30 minutes at 37° C. in 100 μl of assay buffer ([…] Tris-HCl, pH 7.5), with or without a natural or synthetic tea polyphenol. After incubation, production of hydrolyzed AMC groups was measured using a multi-well plate VERSAFLUOR Fluorometer with an excitation filter of 380 nm and an emission filter of 460 nm.
(−)-EGCG at 1 μM was incubated with eukaryotic 20S proteasome (0.02 μg) and suc-LLVY-AMC (20 μM) for the times indicated in FIG. 7. The chymotrypsin activity was measured and graphed in FIG. 7. Values are means from 4 independent experiments, and error bars represent standard deviations.
In the second experiment (−)-EGCG at 1 μM was pre-incubated with (SDS-pre) or without 0.01% SDS (no SDS) for 1 hour, followed by addition of eukaryotic 20S proteasome (0.02 μg) and suc-LLVY-AMC (20 μM). “SDS-post” represents the same treatment as “no SDS” except 0.01% SDS was added 1 hour after addition of the proteasome, (−)-EGCG and the substrate. AMC liberation was measured by fluorescence at each indicated time point and the percentage of chymotrypsin activity was determined. Values are means from 4 independent experiments, and error bars represent standard deviations.

LNCaP cells [3] = assay: Flow cytometry cell cycle analysis, LNCaP cells; format: cell-based, human; conditions: 10 μM, 24 hours
Procedure: (§2) Flow Cytometry. Cell cycle analysis based on DNA content was performed as in An et al. (An, B. et al. Cell Death Differ, 1998, 5:1062-75). At each time point, cells were harvested, counted, and washed twice with PBS. Cells (5×10^6) were suspended in 0.5 ml PBS, fixed in 5 ml of 70% ethanol overnight at −20° C., centrifuged, resuspended again in 1 ml of propidium iodide staining solution (50 μg propidium iodide, 100 units RNase A and 1 mg glucose per ml PBS), and incubated at room temperature for 30 minutes. The cells were then analyzed with FACScan (Becton Dickinson Immunocytometry, Calif.), ModFit LT and WinMDI V.2.8 cell cycle analysis software (Verity Software; Topsham, Me.). The cell cycle distribution is shown as the percentage of cells containing G1, S, G2, and M phase DNA judged by propidium iodide staining The apoptotic population is determined as the percentage of cells with sub-G1 DNA content (<G1).
It has been shown that overexpression of p27 and IκB-α results in G1 arrest. If increased levels of these proteasome target proteins by synthetic GTPs are functional, it would be expected to see growth arrest of tumor cells in G1 phase. To test this hypothesis, asynchronous prostate LNCaP cells were treated with 10 μM of synthetic (+)-EGCG or (+)-GCG, along with each respective natural GTP as control, for 24 hours. Cells were then harvested, and analyzed by cell cycle analysis by flow cytometry. […] Growth arrest was determined by the increase in the percentage of the G1 population.

LNCaP cells [4] = assay: Western blot of proteasome target proteins in LNCaP cells; format: cell-based, human; conditions: 50 μM, 3 to 12 hours
Procedure: Cell Culture, Cell Extract Preparation, and Western Blot Assay. Human leukemia Jurkat T and prostate cancer LNCaP cells were cultured in RPMI 1640 medium supplemented with 10% fetal calf serum, 100 units/ml of penicillin, and 100 μg/ml streptomycin. Human immortalized, non-transformed NK cells (YT cell line) (38) were cultured in RPMI 1640 supplemented with 1 mM MEM sodium pyruvate solution, 0.1 mM MEM non-essential amino acids solution, 10% fetal calf serum. 100 units/ml penicillin, and 100 μg/ml streptomycin. Normal (WI-38) and simian virus 40 (SV40)-transformed (VA-13) human fibroblasts were grown in Dulbecco's modified Eagle's medium supplemented with 10% fetal calf serum, 100 units/ml of penicillin and 100 μg/ml of streptomycin. All cells were maintained at 37° C. in a humidified incubator with an atmosphere of 5% CO2. A whole cell extract was prepared in accordance with An et al. (An, B. et al. Cell Death Differ, 1998, 5:1062-75). Briefly, cells were harvested, washed with PBS twice, and homogenized in a lysis buffer [50 mM Tris-HCl (pH 8.0), 5 mM EDTA, 150 mM NaCl, 0.5% NP-40, 0.5 mM phenylmethylsulfonyl fluoride, and 0.5 mM dithiothreitol] for 30 min at 4° C. Afterwards, lysates were centrifuged at 12,000×g for 15 min at 4° C., and the supernatants were collected as whole cell extracts. Equal amounts of protein extract (60 μg) were resolved by SDS-polyacrylamide gel electrophoresis and transferred to a nitrocellulose membrane using a Semi-Dry Transfer system (BIO-RAD, Hercules, Calif.). Jurkat T, LNCaP, or DU-145 cells were treated with various concentrations of synthetic or natural tea polyphenols for indicted hours. The enhanced chemiluminescence (ECL) Western blot analysis was then performed using specific antibodies to the proteins of interest (p^27kip, IκB-α, PARP, Bax or actin). The ratio of p27 or IκB-α to the corresponding actin was determined by scanning intensities of the protein bands.
To investigate whether (−)-EGCG-amide and (+)-EGCG-amide inhibit intact tumor cell proteasome activity, human prostate cancer LNCaP cells were treated with 25 μM of (−)- or (+)-EGCG-amide for up to 9 hours, followed by measurement of p27, IκB-α and Bax, three well-known proteasome target proteins (Pagano, M. et al. Science, 1995, 269:682-685; An, B. et al. Cell Death Differ, 1998, 5:1062-75; Sun, J. et al. Cancer Res, 2001, 61:1280-1284; Palombella, V. J. et al. Cell, 1994, 78:773-785; Thompson, J. E. et al. Cell, 1995, 80:573-582; Perkins, N. D. Trends Biochem Sci, 2000, 25:434-440; Chang, Y. C. et al. Cell Growth Differ, 1998, 9:79-84; Li, B. and Dou, Q. P. Proc Natl Acad Sci USA, 2000, 97:3850-3855; Nam, S. et al. Cancer Epidemiol Biomarkers Prey, 2001, 10:1083-1088). In this experiment (−)-EGCG and (+)-EGCG were used as positive controls.
Having determined that the synthetic GTP-1 to −5 analogs are able to inhibit the proteasomal chymotrypsin-like activity in vitro (FIG. 8), these compounds were investigated for their potency in inhibiting intact tumor cellular proteasome activity. To do so, human prostate cancer LNCaP cells were treated with one of these compounds for the indicated hours, followed by measuring levels of proteasome target proteins, p27, IκB-α, and Bax, and polyubiquitinated proteins.

purified 20S proteasome [5] = target: T2, purified 20S proteasome (UniProt G1T4Q9); assay: Inhibition of chymotrypsin-like activity of purified 20S proteasome (source not stated); format: biochemical; conditions: chymotrypsin-like activity of purified 20S proteasome
T2 construct: IC50; other: chymotrypsin-like activity of purified 20S proteasome
Procedure: as §1

Jurkat T cells = assay: Flow cytometry cell cycle analysis, Jurkat T cells; format: cell-based, human; conditions: 24 hours
Procedure: as §2
Previous studies have shown that overexpression of p27 (Pagano, M. et al. Science, 1995, 269:682-685), IκB-α (Verma, I. M. et al. Genes Dev, 1995, 9:2723-2735), and Bax (Li, B. and Dou, Q. P. Proc Natl Acad Sci USA, 2000, 97:3850-3855) results in G1 arrest or apoptosis. If increased levels of these proteasome target proteins by the synthetic EGCG analogs are functional, growth inhibition of tumor cells would be expected. […] The G1 population was indeed increased by 26% and 9% by treatment with GTP-4 and GTP-5, respectively (FIG. 11).

purified 20S proteasome [6] = assay: Inhibition of chymotrypsin-like activity of purified 20S proteasome (source not stated); format: biochemical
Procedure: as §1

Molecule | levels of Bax protein (LNCaP cells [4]) | levels of proteasome target proteins (p27, IκB-α) (LNCaP cells [4]) | IC50 (purified 20S proteasome [5]) [nM] | increase of G1 population (Jurkat T cells) [%] | increase of sub-G1 DNA cell population (Jurkat T cells) [%] | inhibition of the proteasome (in words) (purified 20S proteasome [6]) | also measured
O=C(OC1Cc2c(O)cc(O)cc2OC1c1cc(O)c(O)c(O)c1)c1cc(O)c(O)c(O)c1 (single isomer, unassigned; (-)) [(−)-GCG, reference compound] |  |  |  |  |  |  | inhibition of colony formation (LNCaP cells [1]): 99%; IC50 [2]: 610 nM; increase of G1 population (G1 arrest) (LNCaP cells [3]): ~14%
O=C(O[C@H]1Cc2ccccc2C[C@H]1OC(=O)c1cc(O)c(O)c(O)c1)c1cc(O)c(O)c(O)c1 [GTP-4] | increased only at 12 hours | significant increase in levels of p27 and IκB-α | 340 | 26 | ~15 |  | 
O=C(O[C@H]1Cc2cc(O)ccc2C[C@H]1OC(=O)c1cc(O)c(O)c(O)c1)c1cc(O)c(O)c(O)c1 [GTP-5] | increased only at 12 hours | significant increase in levels of p27 and IκB-α | 730 | 9 | ~15 |  | 
COC(C)=O [methyl acetate, reference compound] |  |  |  |  |  | cannot inhibit the proteasome | 
COC(=O)c1cc(O)c(O)c(O)c1 [methyl gallate, reference compound] |  |  |  |  |  | cannot inhibit the proteasome | 
benzyl hydroxybenzoate [reference compound] |  |  |  |  |  | cannot inhibit the proteasome | 

Reference: patent publication US9399631B2, “Polyphenol proteasome inhibitors, synthesis, and methods of use” (UNIVERSITY OF SOUTH FLORIDA, priority 2003, dated 2016)
